# Results reported in patent publication US20030228277A1, “Use of ROM production and release inhibitors to treat and prevent intraocular damage” (priority 2002, published 2003).
# How the values were obtained:
# [1] = system: diabetic patient manifesting proliferative diabetic retinopathy; details: ophthalmic gel containing 0.5% histamine dihydrochloride; compared with patients who received no histamine
# Text: The purpose of this treatment is to reduce the extent of proliferative diabetic retinopathy, to prevent further manifestations of the disease after removal of any extraretinal neovascularized tissue, and to reduce the likelihood of retinal detachment.
# A patient presenting proliferative diabetic retinopathy receives the histamine treatment described herein in combination with surgical treatment of the neovascularized tissue.
# Once diagnosed as entering the proliferative stage, the patient receives a full ophthalmic examination to establish a baseline of ocular health. […]
# After treatment, the patients' eyes are examined on days one (1), two (2), seven (7), fifteen (15), thirty (30) and sixty (60). On each examination day, the patient is monitored. Additionally, the patient is monitored for posterior vitreous detachments using indirect ophthalmoscopy with scleral depression. Finally, the extent of PDR presented by the patient is continuously monitored through periodic retinal examinations and fluorescein angiograms to monitor the extent of venous beading, IRMA, retinal ischemia, neovascularization, and vitreal hemorrhage. […]
# [2] = target: T1, NADPH oxidase (Homo sapiens, UniProt P04839); details: membrane bound enzyme converting oxygen to superoxide; cited from earlier work
# T1 construct: host or cells: phagocytes (not specified further)
# [3] = system: diabetic patient manifesting preproliferative diabetic retinopathy; details: intravitreal ophthalmic solution containing 1% histamine diphosphate; compared to an untreated individual
# Protocol: A diabetic patient manifesting preproliferative diabetic retinopathy is treated for this complication of diabetes mellitus through the intravitreal injection of a histamine compound.
# This increased surveillance should include periodic retinal examinations and fluorescein angiograms to monitor the extent of venous beading, IRMA, and retinal ischemia.
# When preproliferative diabetic retinopathy begins reaching the proliferative stage, treatment with an ROM inhibitor or scavenger is commenced. This stage is defined as the presence of venous beading in 2 or more quadrants, IRMA in one or more quadrants, and/or microaneurysm and dot hemorrhages in all quadrants. Once these indicia are present, the administration of a ROM inhibitor or scavenger is initiated.
# The patient receives a full ophthalmic examination to establish a baseline of ocular health. […]
# After treatment, the patient's eyes are examined on days one (1), two (2), seven (7), fifteen (15), thirty (30) and sixty (60). On each examination day, the patient is monitored. Additionally, the patient is monitored for posterior vitreous detachments using indirect ophthalmoscopy with scleral depression. Finally, the extent of PDR presented by the patient is continuously monitored through periodic retinal examinations and fluorescein angiograms to monitor the extent of venous beading, IRMA, and retinal ischemia.
# [4] = system: patient manifesting age-related macular degeneration; experiment: Treatment of age-related macular degeneration, intravitreal ROM scavenger; format: in vivo, human; details: intravitreal ophthalmic solution containing 0.75% superoxide dismutase; compared to untreated eyes
# Protocol: A patient manifesting age-related macular degeneration is treated with an intravitreal injection of a scavenger of ROM, namely superoxide dismutase.
# Once a patient reaches the age of 60, increased ophthalmic surveillance is performed to detect the presence of ADM.
# When ADM is diagnosed, a regime of histamine treatment is commenced coupled with or without other treatments such as photocoagulation.
# Following the preliminary examination, an intravitreal injection of superoxide dismutase is given to the patient's affected eye manifesting ADM. […] The eye to be treated is injected intravitreally with an ophthalmic solution containing 0.75% superoxide dismutase to prevent or reduce ROM mediate intraocular damage.
# Because of the possibility of reoccurrence, the patient should return for periodic examinations on a monthly basis thereafter. […] Additional superoxide dismutase and/or laser treatments may be required if indicia of reoccurring neovascularization are observed.
# [5] = system: macular hole formation; details: 200 μl intravitreal ophthalmic solution containing 5% histamine dihydrochloride; compared with untreated eyes
# Protocol: The described methods contemplate the use of histamine to reduce ROM levels and so as to eliminate the conditions which result in macular hole formation. Following the preliminary examination, an intravitreal injection of histamine dihydrochloride is given to patient's affected eye. If both eyes are affected, they may be treated separately. The eye is injected with the histamine ophthalmic solution intravitreally to promote a reduction of ROM levels. The eye to be treated is injected intravitreally with 200 μl of a histamine ophthalmic solution containing 5% histamine dihydrochloride to prevent or reduce ROM mediate intraocular damage.
# [6] = system: patient suffering from PDR; details: approximately 100 μl of a 2% histamine-containing solution injected intraocularly, repeated every two weeks
# Text: As a preliminary step a patient is identified as suffering from PDR. […] The patient is monitored thereafter. The treatment is repeated every two weeks.
compound,measurement,setting,value
Cl.Cl.NCCc1c[nH]cn1 [histamine dihydrochloride],development of posterior vitreous detachments,[1],reduction in the development of posterior vitreous detachments
NC(=O)C1=CN([C@@H]2O[C@H](COP(=O)(O)OP(=O)(O)OC[C@H]3O[C@@H](n4cnc5c(N)ncnc54)[C@H](O)[C@@H]3O)[C@@H](O)[C@H]2O)C=CC1 [NADH],Km,[2],450 µM
NC(=O)C1=CN([C@@H]2O[C@H](COP(=O)(O)OP(=O)(O)OC[C@H]3O[C@@H](n4cnc5c(N)ncnc54)[C@H](OP(=O)(O)O)[C@@H]3O)[C@@H](O)[C@H]2O)C=CC1 [NADPH],Km,[2],45 µM
histamine diphosphate,development of proliferative diabetic retinopathy,[3],reduction in the development of proliferative diabetic retinopathy
superoxide dismutase,ocular health,[4],improvement in ocular health
NCCc1c[nH]cn1 [histamine],incidence of macular hole formation,[5],reduction in the incidence of macular hole formation
same,symptoms associated with PDR,[6],reduction in symptoms associated with PDR
